Laboratory results taken from patent publication US20090298077A1, “ASSAY FOR MEASUREMENT OF APURINIC/APYRIMIDINIC (AP) SITES AND FOR SCREENING AP-SITE REACTIVE COMPOUNDS” (priority 2006, published 2009).
Where “and” joins values, the source holds several entries; their conditions need not be identical. Identical values can stand only once.

What was measured:
AP-DNA [1] = assay: Reversibility study of the condensation reaction between FARP / MX and AP-DNA; assay type: binding, calf; conditions: result in words, under the assay conditions
Description: It was known that the aldehyde group of an AP site could easily condense with aminooxy or hydrazone nucleophiles. However, the reversibility of the reaction was not clear, especially in the presence of another competing nucleophile. To clarify the above, two experiments were designed and carried out as follows: (a) FARP (50 μM in 100 μL of 10 mM phosphate buffer at pH 7.0) reacted with AP-DNA (125 nM in 200 μL of 10 mM phosphate buffer at pH 7.0) for 1 hr, after washing the condensation product (FARP-AP-DNA) incubated with MX (50 μM in 100 μL of 10 mM phosphate buffer at pH 7.0) for various time periods; and (b) MX (50 μM in 100 μL of 10 mM phosphate buffer at pH 7.0) reacted with AP-DNA (125 nM, 200 μL) for 1 hr, after washing the condensation product (MX-AP-DNA) incubated with FARP (50 μM in 100 μL of 10 mM phosphate buffer at pH 7.0) for various time periods.

AP-DNA [2] = assay: FARP AP-site assay: screening of MX-like compounds in competition with FARP; assay type: binding, calf; conditions: 100 nM AP-DNA
Description: (§1) 100 μL of 5 μM FARP in phosphate buffer (10 mM, pH 7.0) was added to 200 μL phosphate buffer (10 mM, pH 7.0) containing 10 μg of DNA extracted from cells, individual AP-DNA standard (10, 20, 40, 80, 160, 320, and 640 nM AP), and blank AP-DNA control, respectively. After vortexing, the reaction was allowed to proceed at room temperature for 15 min. At the end of the reaction 200 μL ammonium acetate (7.5M) and 1000 μL ice-cold ethanol (100%) were added. The solution was mixed gently by inverting the tube before keeping it at −20° C. for 30 min. Each tube was centrifuged at 4° C. and 12,000 g for 10 min. The supernatant was poured out carefully so that no loss of FARP-AP-DNA took place. 1200 μL of ice-cold ethanol (70%) was added to each tube to remove the free FARP by centrifugation at 4° C. and 12,000 g for 10 min. This washing step with 70% ice-cold ethanol was repeated two more times. After discarding the supernatant, the FARP-AP-DNA precipitate in the tube was dried at room temperature for 30 min. in a venting hood. The FARP-AP-DNA precipitate was hydrated and resuspended in 200 μL of phosphate buffer (10 mM, pH 9.0) at room temperature for 1 hr. The fluorescence intensity of the resultant FARP-AP-DNA solution was measured by the FluoroMax-2 spectrofluorometer. A calibration curve could be constructed by plotting the fluorescence intensity versus the concentration of AP sites.
One important application of the FARP AP-site assay developed is to screen MX-like compounds for their reactivity to AP site based on known chemical structures. In this work, four compounds with aminooxy or hydrazone group (i.e., MXL1O1, MXLIO2, MXLI 03, and MXL 104) together with MX were tested. The detail experiment included mixing equal concentration and volume of each individual test compound with FARP (50 μM in 100 μL of 10 mM phosphate buffer at pH 7.0) before reacting with 200 µL of 100 nM AP-DNA. The remaining experimental procedures were the same as described in the Experimental section. The data of fluorescence intensity reduced by MX and MX-like compounds were given in Table XI and the fluorescence intensity of the test compounds were compared in FIG. 19.

[3] = tested on: human nonadherent mononuclear cells; assay: FARP assay of AP sites in DNA from drug-treated human nonadherent mononuclear cells; assay type: cell-based; conditions: human nonadherent cell, 2 hrs at 37° C., MX 12.5 mM where combined
Description: as §1
(§2) Adherent SW480 colon cancer cells (from the American Type Culture Collection (Manassas, Va., USA), and human nonadherent mononuclear cells from heparinized peripheral blood of a normal donor, which were purified by the Ficoll-Hypaque density gradient centrifugation technique, were used in the in vitro experiments of TMZ and MX.
The cells (5×10^6 cells) were plated in 100-mm culture dishes and treated by TMZ alone at various concentrations (0, 187, 375, 750, and 1500 μM), and together with MX (12.5 mM) for 2 hrs at 37° C. At the end of treatment, the cells were washed by either rinsing the SW480 cells on dishes (SW480) or centrifugation of the human cells in tubes with the media. After plating the cells in dishes with fresh media, 3 mM MX was added to the dishes that were treated with TMZ and MX together. The cells were harvested by centrifugation at […] after the treatment of 3 mM MX. […]

SW480 colon cancer cells [4] = assay: ARP assay of AP sites in DNA from drug-treated SW480 cells; assay type: cell-based; conditions: 2 hrs at 37° C., MX 12.5 mM where combined
From the text: (§3) An ARP method modified for the slot-blot vacuum filter device was used in this work. […]

[5] = tested on: human nonadherent mononuclear cells; assay: ARP assay of AP sites in DNA from drug-treated human nonadherent mononuclear cells; assay type: cell-based; conditions: human nonadherent cell, 2 hrs at 37° C., MX 12.5 mM where combined
From the text: as §3

SW480 colon cancer cells [6] = assay: FARP assay of AP sites in DNA from drug-treated SW480 cells; assay type: cell-based; conditions: 2 hrs at 37° C., MX 12.5 mM where combined
Description: as §1, §2
The cells (5×10^6 cells) were plated in 100-mm culture dishes and treated by TMZ alone at various concentrations (0, 187, 375, 750, and 1500 μM), and together with MX (12.5 mM) for 2 hrs at 37° C. At the end of treatment, the cells were washed by either rinsing the SW480 cells on dishes (SW480) or centrifugation of the human cells in tubes with the media. […]

[7] = test compound mixed with FARP at equal concentration and volume (50 μM in 100 μL, pH 7.0)

SMILES	reversibility of the condensation reaction with aldehyde group of AP-DNA (AP-DNA [1])	Normalized Fluorescence Intensity % (AP-DNA [2]; relative to FARP alone = 100, equal concentration of test compound and FARP) [%]	Fluorescence Intensity Individual Measurement (AP-DNA [2]; [7])	Fluorescence Intensity Mean (AP-DNA [2]; [7])	FARP Assay Fluorescence Intensity/10^4 ([3]; TMZ 187 μM)	FARP Assay Fluorescence Intensity/10^4 ([3]; TMZ 375 μM)	FARP Assay Fluorescence Intensity/10^4 ([3]; TMZ 750 μM)	FARP Assay Fluorescence Intensity/10^4 ([3]; TMZ 1500 μM)	ARP Assay Band Intensity/10^3 (SW480 colon cancer cells [4]; SW480, TMZ 187 μM)	ARP Assay Band Intensity/10^3 (SW480 colon cancer cells [4]; SW480, TMZ 375 μM)	ARP Assay Band Intensity/10^3 (SW480 colon cancer cells [4]; SW480, TMZ 750 μM)	ARP Assay Band Intensity/10^3 ([5]; TMZ 187 μM)	ARP Assay Band Intensity/10^3 ([5]; TMZ 375 μM)	ARP Assay Band Intensity/10^3 ([5]; TMZ 750 μM)	ARP Assay Band Intensity/10^3 ([5]; TMZ 1500 μM)	FARP Assay Fluorescence Intensity/10^4 (SW480 colon cancer cells [6]; SW480, TMZ 187 μM)	FARP Assay Fluorescence Intensity/10^4 (SW480 colon cancer cells [6]; SW480, TMZ 375 μM)	FARP Assay Fluorescence Intensity/10^4 (SW480 colon cancer cells [6]; SW480, TMZ 750 μM)
NNC(=S)Nc1ccc(-c2c3ccc(=O)cc-3oc3cc(O)ccc23)c(C(=O)O)c1 [FARP, fluorescein-5-thiosemicarbazide]	irreversible	100.0	17080.0 and 16892.0	16986.0	–	–	–	–	–	–	–	–	–	–	–	–	–	–
Cn1nnc2c(C(N)=O)ncn2c1=O [TMZ, 3,4-dihydro-3-methyl-4-oxoimidazo[5,1-d]-as-tetrazine-8-carboxamide]	–	–	–	–	1.622	3.138	4.201	15.77	1.420	2.723	5.233	2.201	3.524	4.352	5.844	2.428	3.691	5.310
